Reference: US20100190187A1, “Screening Assays for Antagonists and Analyses of Cardiac Hypertrophy” (The Regents of the University of Michigan Office of …, priority 2006, published 2010)

Tested on: HL-1 cells
Test: Western blot of hypertrophy biomarkers in HL-1 cells
Type: cell-based, murine
Conditions: for dose dependence of expression of the VDR: FIG. 13(C), compared to control
Procedure: Screening assays employing incubation of VDR containing cells with and without a test compound. Cell extracts can be prepared and screened for increases or decreases of cardiac hypertrophy biomarkers or increase in PKC activity, VDR expression, myotrophin expression, using antibody detection methods described herein. Equivalent protein quantities of test compound cell extracts and control cell extracts can be loaded onto continuous or discontinuous PAGE gels and electrophoresed from 15 min to 24 hours, depending on the size of the gel. Following electrophoresis, the proteins can be electrophoretically transferred to PVDF membranes and probed with antibodies specific for example to Protein Kinase C and downstream regulated products c-myc, VDR, ANP, calbindin 9 and 32 and myotrophin. Bound antibodies can be visualized using chemiluminescent detection, chromatic detection or any method of detection of labeled membrane bound antibodies otherwise known as Western blotting. […] In FIG. 13(A), Western blots reveal that when HL-1 cells are incubated in the presence of a control sample (left lane) and a test compound (right lane). In some embodiments, for example, Vitamin D3 analog or metabolite, can be the test compound, or Vitamin D3 can be a control to measure the activity of the test compound. As shown in FIG. 13(A), Vitamin D3 reduces the expression of ANP, c-myc and calbindin 9 as compared to cells not incubated in the presence if Vitamin D3. […] Vitamin D3 has a positive up-regulating effect upon the expression of the VDR in HL-1 cells.
Treated and control samples of HL-1 cells are trypsinized and removed from flasks. Cell counts are performed under microscope with a Fisher hemacytometer. Samples are centrifuged at 3000 RPM for 2 minutes to obtain a pellet, which is then re-suspended in an SDS-leupeptin sample buffer (SB). This whole cell lysate can then be boiled for 15 minutes, separated into working aliquots, and stored at −20° C. for analysis. Standard Bradford Protein Determination is then performed on all samples. Samples are then electrophoresed as described in Example 4. Following electrophoresis, protein is transferred onto a PVDF (Millipore) membrane. After blocking the membrane for one hour with 5% milk in TBS containing 0.05% Tween 20 (Sigma), the blots are incubated with primary and secondary antibodies according to the dilutions listed below. The blot is washed three times in TBS/0.5% Tween 20 after each incubation, followed by one final wash in TBS. The membrane can then be treated with ECL developer (Amersham Biosciences) and exposed to Kodak Biomax XAR film. To confirm equal loading of protein into the wells each blot can be stripped and re-probed with HRP conjugated goat anti-mouse actin antibody (sc-1616HRP; Santa Cruz Biotechnology Co; 1:1000). The primary antibodies that can be used include rabbit anti-mouse VDR (sc-1008; Santa Cruz Bio; 1:200 dilution); rabbit anti-mouse ANP (AB 5490; Chemicon; 1:500 dilution), mouse monoclonal anti-myotrophin (V11220; BD Transduction Laboratory; 1:1000), rabbit anti-mouse c-myc (sc-764, Santa Cruz Bio; 1:100), and goat anti-mouse calbindin-9 (sc-18038, Santa Cruz Bio; 1:100). The secondary antibodies which can be used include HRP conjugated goat anti-rabbit (AP 132P, Chemicon; 1:1000) for VDR, ANP, and c-myc. HRP conjugated goat anti-mouse (A 2304, Sigma; 1:1000), and bovine anti-goat Ab (sc2350, Santa Cruz Bio; 1:250), for myotrophin and calbindin-9, respectively.

Structure (SMILES): C=C1CC[C@H](O)C/C1=C/C=C1\CCC[C@]2(C)[C@@H]([C@H](C)CCCC(C)C)CC[C@@H]12 [Vitamin D3]
- levels of intracellular ANP (FIG. 13(A)): significantly reduced levels
- levels of intracellular Calbindin 9 (FIG. 13(A)): significantly reduced levels
- levels of intracellular c-myc (FIG. 13(A)): significantly reduced levels
- expression of the VDR (FIG. 13(B), 1 and 24 hours post exposure): up-regulated
- dose dependence of expression of the VDR: dose dependent
- dose dependence of expression of the VDR (listed as Vitamin D 3): dose dependent induction of expression of VDR
